Measured values reported in patent US20140228440A1, “1-AMINO-ALKYLCYCLOHEXANE DERIVATIVES FOR THE TREATMENT OF INFLAMMATORY SKIN DISEASES” (MERZ PHARMA GmbH & CO. KGaA, priority 2008, published 2014).

How the values were obtained:
[1] = tested on: dermal application sites; test: Local tolerability of topical formulation, 14 days of daily dermal treatment; type: in vivo, Göttingen minipigs
Procedure: The objective of this study is to evaluate the local tolerance of Neramexane mesylate in a topical formulation at different dose levels after 14 days of daily dermal treatment to minipigs.
The study is performed in 4 female Gottingen SPF minipigs (from Ellegaard Gottingen Minipigs Aps). Each animal has 5 application sites (25 cm^2) marked on the back and is dosed for 8 hours each day. Each test site is used for the same test item or placebo throughout the study. The test group is treated with Neramexane mesylate at the following concentrations: 0, 0.5, 2.5, 5.0 and 10.0% (w/w).
Clinical signs are recorded 2-4 hours post start of each treatment and the local dermal reactions (erythema, oedema) are evaluated prior to treatment. Body weight is recorded weekly (and also on Day 1 and at necropsy).

[2] = tested on: Propionibacterium acnes ATCC 11828; test: MIC and MBC by the agar dilution method; type: cell-based
Procedure: (§1) To assess the anti-microbial potency of Neramexane against acne relevant bacterias the minimal inhibitory concentration (MIC) and minimal bactericidal concentration (MBC) against the following bacterias is established: The MICs of the samples are determined using the agar dilution method based on DIN 58940. Petri dishes of 5.5 cm diameter are poured with 2.5 ml of freshly prepared Mueller-Hinton agar (Merck company, Cat-No 1.05437) or Wilkins-Chalgren-Agar (Oxoid company, Cat-No CM643), maintained in liquid form at 50° C., to which the sample dilutions at various concentrations have been added at 50.0 vol.-%. To prepare the starting sample dilutions, a 12.5%, 3.12% suspension of the respective sample solution is prepared with Aqua purificata. From these stock-solutions, further dilutions are prepared with Aqua purificata. All test compounds are adjusted to pH 5.5. For test product no. 1, separate dilutions adjusted to pH 6.0 and pH 7.4 are also prepared. For inoculation, 1 μl of the respective germ suspension is placed on the centre of each agar plate. After drying, inoculated plates are incubated at 36.0±2.0° C. The basis for the length of incubation period is the respective growth control cultivated in parallel. The test microbe suspension is prepared by inoculating a few individual colonies of the respective bacteria into sterile saline solution until a turbidity corresponding to the McFarland standard 1.0 (approximately 10^8 cfu/ml) is reached. After that, the test microbe suspensions are further diluted 1:10 with saline solution and the microbial counts (see Table 21) are determined by the surface spread method using a spiral plater. The agar plates are incubated under the conditions given in Table 22 and subsequently evaluated. The MIC-values as given represent the lowest concentration of the active substance at which there is no macroscopically visible growth. Minimal, barely visible growth or few small individual colonies are evaluated as inhibition. [table] All negative tests of the determination of the minimal bactericial concentration are the basis of verification of remaining germs, the inoculated agar segments are cut and put in Mueller-Hinton-Bouillon (germ 1) or Wilkins-Chalgren-Bouillon (germs 2-4). After an adequate incubation period at 36.0±2.0° C. (as judged from a control without test compound), the tests are checked manually on microbial growth (=turbidity) and the minimal bactericidal concentration is determined. MBC indicates the concentration without marked turbidity. Grown germs are checked for identity to rule out unspecific contaminations. The following results are summarized and tabulated: • a) Results of the Minimal Inhibitory Concentration (MIC)* • b) Results of the Minimal Bactericidal Concentration (MBC) *The MIC is the concentration without macroscopical growth. Scarcely apparent, minimum growth or few single colonies are not considered. The controls must have a respectively good developed growth. There must be no growth on the agar plates for the sterile control. The growth of bacteria is indicated for the duplicate plates by a +(i.e., growth) or a −(i.e., no growth), +− indicates weak growth on both plates or growth on one plate and no growth on the other plate. All bacteria show appropriate growth on the respective control plate not containing any test compound. No influence of the used diluent (Aqua purifacata) was observed. No contamination is observed on the control-plates.

[3] = tested on: Propionibacterium avidum ATCC 25577; test: MIC and MBC by the agar dilution method; type: cell-based; settings: pH 5.5
Procedure: as §1

[4] = 0.5, 2.5, 5.0 and 10.0% (w/w), dermal, 14 days
[5] = final concentration 0.08 %, pH 5.5
[6] = final concentration 0.08 %, pH 6.0
[7] = final concentration 0.16 %, pH 5.5
[8] = final concentration 0.16 %, pH 6.0
[9] = final concentration 0.16 %, pH 7.4
[10] = final concentration 0.31 %, pH 5.5
[11] = final concentration 0.31 %, pH 6.0
[12] = final concentration 0.31 %, pH 7.4
[13] = final concentration 0.63 %, pH 5.5
[14] = final concentration 0.63 %, pH 6.0
[15] = final concentration 0.63 %, pH 7.4
[16] = final concentration 1.56 %, pH 5.5
[17] = final concentration 1.56 %, pH 6.0
[18] = final concentration 1.56 %, pH 7.4
[19] = final concentration 2.50 %, pH 5.5
[20] = final concentration 2.50 %, pH 6.0
[21] = final concentration 2.50 %, pH 7.4
[22] = final concentration 3.13 %, pH 5.5
[23] = final concentration 3.13 %, pH 6.0
[24] = final concentration 3.13 %, pH 7.4
[25] = final concentration 6.25 %, pH 5.5
[26] = final concentration 6.25 %, pH 6.0
[27] = final concentration 6.25 %, pH 7.4

growth of bacteria on duplicate plates (MIC determination) ([2]; final concentration 0.01 %, pH 5.5): + +
growth of bacteria on duplicate plates (MIC determination) ([2]; final concentration 0.01 %, pH 6.0): + +
growth of bacteria on duplicate plates (MIC determination) ([2]; final concentration 0.01 %, pH 7.4): + +
growth of bacteria on duplicate plates (MIC determination) ([2]; final concentration 0.04 %, pH 5.5): + +
growth of bacteria on duplicate plates (MIC determination) ([2]; final concentration 0.04 %, pH 6.0): + +
growth of bacteria on duplicate plates (MIC determination) ([2]; final concentration 0.04 %, pH 7.4): + +
growth of bacteria on duplicate plates (MIC determination) [2, 5]: − −
growth of bacteria on duplicate plates (MIC determination) [2, 6]: − −
growth of bacteria on duplicate plates (MIC determination) ([2]; final concentration 0.08 %, pH 7.4): + +
growth of bacteria on duplicate plates (MIC determination) [2, 7]: − −
growth of bacteria on duplicate plates (MIC determination) [2, 8]: − −
growth of bacteria on duplicate plates (MIC determination) [2, 9]: − −
growth of bacteria on duplicate plates (MIC determination) [2, 10]: − −
growth of bacteria on duplicate plates (MIC determination) [2, 11]: − −
growth of bacteria on duplicate plates (MIC determination) [2, 12]: − −
growth of bacteria on duplicate plates (MIC determination) [2, 13]: − −
growth of bacteria on duplicate plates (MIC determination) [2, 14]: − −
growth of bacteria on duplicate plates (MIC determination) [2, 15]: − −
growth of bacteria on duplicate plates (MIC determination) [2, 16]: − −
growth of bacteria on duplicate plates (MIC determination) [2, 17]: − −
growth of bacteria on duplicate plates (MIC determination) [2, 18]: − −
growth of bacteria on duplicate plates (MIC determination) [2, 19]: − −
growth of bacteria on duplicate plates (MIC determination) [2, 20]: − −
growth of bacteria on duplicate plates (MIC determination) [2, 21]: − −
growth of bacteria on duplicate plates (MIC determination) [2, 22]: − −
growth of bacteria on duplicate plates (MIC determination) [2, 23]: − −
growth of bacteria on duplicate plates (MIC determination) [2, 24]: − −
growth of bacteria on duplicate plates (MIC determination) [2, 25]: − −
growth of bacteria on duplicate plates (MIC determination) [2, 26]: − −
growth of bacteria on duplicate plates (MIC determination) [2, 27]: − −
MIC ([2]; pH 5.5): 0.08%
MIC ([2]; pH 6.0): 0.08%
MIC ([2]; pH 7.4): 0.16%
growth of bacteria on duplicate plates (MIC determination) ([3]; final concentration 0.01 %): + +
growth of bacteria on duplicate plates (MIC determination) ([3]; final concentration 0.04 %): + +
growth of bacteria on duplicate plates (MIC determination) ([3]; final concentration 0.08 %): − −
growth of bacteria on duplicate plates (MIC determination) ([3]; final concentration 0.16 %): − −
growth of bacteria on duplicate plates (MIC determination) ([3]; final concentration 0.31 %): − −
growth of bacteria on duplicate plates (MIC determination) ([3]; final concentration 0.63 %): − −
growth of bacteria on duplicate plates (MIC determination) ([3]; final concentration 1.56 %): − −
growth of bacteria on duplicate plates (MIC determination) ([3]; final concentration 2.50 %): − −
growth of bacteria on duplicate plates (MIC determination) ([3]; final concentration 3.13 %): − −
growth of bacteria on duplicate plates (MIC determination) ([3]; final concentration 6.25 %): − −
MIC [3]: 0.08%
SMILES: CC1(C)CC(C)(C)CC(C)(N)C1.CS(=O)(=O)O [Neramexane mesylate]
test item related changes (conclusion) ([1]; 0.5%, 2.5%, 5% and 10% in a topical formulation, 14 Days): no test item related changes
clinical signs and body weight gain [1, 4]: No test item related changes are observed
dermal skin reactions (erythema, oedema) [1, 4]: no test item related dermal skin reactions are observed
gross necropsy [1, 4]: no macroscopic changes are observed
histopathology evaluation of the dermal application sites [1, 4]: no treatment-related macroscopic or microscopic findings
growth of bacteria (MBC determination) [2, 5]: + +
growth of bacteria (MBC determination) [2, 6]: + +
growth of bacteria (MBC determination) [2, 7]: + +
growth of bacteria (MBC determination) [2, 8]: + +
growth of bacteria (MBC determination) [2, 9]: + +
growth of bacteria (MBC determination) [2, 10]: + +
growth of bacteria (MBC determination) [2, 11]: + +
growth of bacteria (MBC determination) [2, 12]: + +
growth of bacteria (MBC determination) [2, 13]: + +
growth of bacteria (MBC determination) [2, 14]: − −
growth of bacteria (MBC determination) [2, 15]: + +
growth of bacteria (MBC determination) [2, 16]: − −
growth of bacteria (MBC determination) [2, 17]: − −
growth of bacteria (MBC determination) [2, 18]: − −
growth of bacteria (MBC determination) [2, 19]: − −
growth of bacteria (MBC determination) [2, 20]: − −
growth of bacteria (MBC determination) [2, 21]: − −
growth of bacteria (MBC determination) [2, 22]: − −
growth of bacteria (MBC determination) [2, 23]: − −
growth of bacteria (MBC determination) [2, 24]: − −
growth of bacteria (MBC determination) [2, 25]: − −
growth of bacteria (MBC determination) [2, 26]: − −
growth of bacteria (MBC determination) [2, 27]: − −
MBC ([2]; pH 5.5): 1.56%
MBC ([2]; pH 6.0): 0.63%
MBC ([2]; pH 7.4): 1.56%
growth of bacteria (MBC determination) ([3]; final concentration 0.08 %): + +
growth of bacteria (MBC determination) ([3]; final concentration 0.16 %): + +
growth of bacteria (MBC determination) ([3]; final concentration 0.31 %): + +
growth of bacteria (MBC determination) ([3]; final concentration 0.63 %): − −
growth of bacteria (MBC determination) ([3]; final concentration 1.56 %): − −
growth of bacteria (MBC determination) ([3]; final concentration 2.50 %): − −
growth of bacteria (MBC determination) ([3]; final concentration 3.13 %): − −
growth of bacteria (MBC determination) ([3]; final concentration 6.25 %): − −
MBC [3]: 0.63%
